Test results: patent US9493446B2, “Orexin receptor antagonists which are [ortho bi-(hetero-)aryl]-[2-(meta bi-(hetero-)aryl)-pyrrolidin-1-yl]-methanone derivatives” (Actelion Pharmaceuticals Ltd, priority 2012, dated 2016)
Like-named read-outs stand apart in the source and are kept apart here.

Assays:
[1] = biological target: orexin-1 (Homo sapiens (Human), UniProt O43613); assay: Intracellular calcium measurement (FLIPR), CHO cells expressing human orexin-1 receptor, 3 nM orexin-A; format: cell-based; settings: read-out: IC50 OX1
In short: (§1)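 Antagonist is added 120 min before agonist. Fluo-4 AM-loaded CHO cells carry human orexin-1 or orexin-2 receptor, and calcium is read by FLIPR.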

[2] = biological target: human orexin-2 receptor (Homo sapiens (Human), UniProt O43614); assay: Intracellular calcium measurement (FLIPR), CHO cells expressing human orexin-2 receptor, 3 nM orexin-A; format: cell-based; settings: read-out: IC50 OX2
In short: as §1

[3] = CHO cells expressing human orexin-1 receptor, FLIPR, 3 nM orexin-A, geometric mean if determined several times
[4] = CHO cells expressing human orexin-2 receptor, FLIPR, 3 nM orexin-A, geometric mean if determined several times

Chain of orexin-1 (O43613 whole entry): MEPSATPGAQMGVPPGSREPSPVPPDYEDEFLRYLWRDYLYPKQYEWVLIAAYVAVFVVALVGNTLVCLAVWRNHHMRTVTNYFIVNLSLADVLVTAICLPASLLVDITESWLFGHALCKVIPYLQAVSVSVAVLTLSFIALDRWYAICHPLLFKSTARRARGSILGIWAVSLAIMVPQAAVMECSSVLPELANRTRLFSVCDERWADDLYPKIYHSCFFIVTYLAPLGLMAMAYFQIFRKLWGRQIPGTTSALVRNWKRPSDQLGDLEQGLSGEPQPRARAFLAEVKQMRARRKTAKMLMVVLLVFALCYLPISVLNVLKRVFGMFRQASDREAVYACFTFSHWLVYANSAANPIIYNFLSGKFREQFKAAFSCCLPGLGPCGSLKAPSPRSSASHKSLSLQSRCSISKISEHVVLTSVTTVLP
Chain of human orexin-2 receptor (O43614 whole entry): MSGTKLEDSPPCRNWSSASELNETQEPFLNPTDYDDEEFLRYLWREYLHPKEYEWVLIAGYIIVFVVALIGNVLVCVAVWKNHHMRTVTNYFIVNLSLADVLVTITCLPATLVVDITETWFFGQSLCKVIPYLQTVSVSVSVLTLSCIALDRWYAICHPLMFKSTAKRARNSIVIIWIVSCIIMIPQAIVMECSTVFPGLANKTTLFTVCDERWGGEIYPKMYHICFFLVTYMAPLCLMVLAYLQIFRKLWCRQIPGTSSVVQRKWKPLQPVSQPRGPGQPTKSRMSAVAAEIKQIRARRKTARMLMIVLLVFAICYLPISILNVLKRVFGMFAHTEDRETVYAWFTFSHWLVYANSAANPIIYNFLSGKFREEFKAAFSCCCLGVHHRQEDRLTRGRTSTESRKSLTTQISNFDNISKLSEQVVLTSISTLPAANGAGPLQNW

| Compound | IC50 [1, 3] [nM] | IC50 [2, 4] [nM] | IC50 [2] [nM] | IC50 [1] [nM] |
| --- | --- | --- | --- | --- |
| CCOc1ncccc1-c1noc([C@@H]2CCCN2C(=O)c2cc(Cl)c(C)cc2-n2nccn2)n1 [compound 301] | 19 | 6 |  |  |
| COc1cc(C(=O)N2CCC[C@H]2c2noc(-c3ccccc3OC(F)(F)F)n2)c(-n2nccn2)cc1Cl [compound 375] | 67 | 6 |  |  |
| COc1ccc(-c2nnc([C@@H]3CCCN3C(=O)c3cc(C)ccc3-n3nccn3)o2)cc1 [Example 457, {(S)-2-[5-(4-Methoxy-phenyl)-[1,3,4]oxadiazol-2-yl]-pyrrolidin-1-yl}-(5-methyl-2-[1,2,3]triazol-2-yl-phenyl)-methanone] | 17000 | 3440 |  |  |
| COc1cccc(-c2noc([C@@H]3CCCN3C(=O)c3cc(C)ccc3-n3nccn3)n2)c1Cl [compound 70] | 623 |  | 53 |  |
| COc1cc(C(=O)N2CCC[C@H]2c2nc(-c3cccc(Cl)c3C)no2)c(-n2nccn2)cc1Cl [compound 280] | 54 | 4 |  |  |
| Cc1ccc(-c2ncco2)c(C(=O)N2CCC[C@H]2c2nc(-c3cccc(Cl)c3C)no2)c1 [compound 131] |  |  | 8 | 45 |
| Cc1ccc(-n2nccn2)c(C(=O)N2CCC[C@H]2c2nc(-c3ccccc3Cl)no2)n1 [compound 242] | 4360 | 1440 |  |  |
| COc1cccc(-c2nc([C@@H]3CCCN3C(=O)c3cc(Cl)ccc3-n3nccn3)no2)c1C [compound 361] | 127 | 61 |  |  |
| {(S)-2-[5-(3-Chloro-2-methyl-phenyl)-[1,3,4]oxadiazol-2-yl]-pyrrolidin-1-yl}-[3-(2-chloro-phenyl)-5-methyl-isoxazol-4-yl]-methanone [Reference compound 9, reference compound] |  | 242 |  | 853 |
| CCOc1ncccc1-c1nc([C@@H]2CCCN2C(=O)c2cc(Cl)ccc2-n2nccn2)no1 [compound 346] | 23 | 2 |  |  |

Further lines, with some results ahead:

| IC50 [1, 3] [nM] | IC50 [2, 4] [nM] | Compound | IC50 [2] [nM] | IC50 [1] [nM] |
| --- | --- | --- | --- | --- |
| 19 | 6 | CCOc1ncccc1-c1noc([C@@H]2CCCN2C(=O)c2cc(C)ccc2-c2ncco2)n1 [compound 224, {(S)-2-[3-(2-Ethoxy-pyridin-3-yl)-[1,2,4]oxadiazol-5-yl]-pyrrolidin-1-yl}-(5-methyl-2-oxazol-2-yl-phenyl)-methanone] |  |  |
| 56 | 21 | CCOc1ncccc1-c1noc([C@@H]2CCCN2C(=O)c2cc(C)cc(C)c2-n2nccn2)n1 [compound 209, (3,5-Dimethyl-2-[1,2,3]triazol-2-yl-phenyl)-{(S)-2-[3-(2-ethoxy-pyridin-3-yl)-[1,2,4]oxadiazol-5-yl]-pyrrolidin-1-yl}-methanone] |  |  |
| 852 | 425 | COc1ccccc1-c1noc([C@@H]2CCCN2C(=O)c2ccccc2-n2nccn2)n1 [compound 227, {(S)-2-[3-(2-Methoxy-phenyl)-[1,2,4]oxadiazol-5-yl]-pyrrolidin-1-yl}-(2-[1,2,3]triazol-2-yl-phenyl)-methanone] |  |  |
| 10 | 4 | COc1cc(C)cc(-c2nc([C@@H]3CCCN3C(=O)c3cc(C)c(C)cc3-n3nccn3)no2)c1 [compound 382, (4,5-Dimethyl-2-[1,2,3]triazol-2-yl-phenyl)-{(S)-2-[5-(3-methoxy-5-methyl-phenyl)-[1,2,4]oxadiazol-3-yl]-pyrrolidin-1-yl}-methanone] |  |  |
| 53 | 16 | CCOc1ncccc1-c1noc([C@@H]2CCCN2C(=O)c2cc(OC)ccc2-n2nccn2)n1 [compound 220, {(S)-2-[3-(2-Ethoxy-pyridin-3-yl)-[1,2,4]oxadiazol-5-yl]-pyrrolidin-1-yl}-(5-methoxy-2-[1,2,3]triazol-2-yl-phenyl)-methanone] |  |  |
| 27 | 3 | COc1c(Cl)cccc1-c1nnc([C@@H]2CCCN2C(=O)c2cc(C)c(C)cc2-n2nccn2)[nH]1 [compound 492, {(S)-2-[5-(3-Chloro-2-methoxy-phenyl)-4H-[1,2,4]triazol-3-yl]-pyrrolidin-1-yl}-(4,5-dimethyl-2-[1,2,3]triazol-2-yl-phenyl)-methanone] |  |  |
| 57 | 3 | COc1cc(C(=O)N2CCC[C@H]2c2noc(-c3cc(C)ccc3OC)n2)c(-n2nccn2)cc1C [compound 387, {(S)-2-[5-(2-Methoxy-5-methyl-phenyl)-[1,2,4]oxadiazol-3-yl]-pyrrolidin-1-yl}-(5-methoxy-4-methyl-2-[1,2,3]triazol-2-yl-phenyl)-methanone] |  |  |
| 8 | 5 | Cc1ccc(-n2nccn2)c(C(=O)N2CCC[C@H]2c2nc(-c3ccccc3OC(F)(F)F)no2)c1 [compound 17, (5-Methyl-2-[1,2,3]triazol-2-yl-phenyl)-{(S)-2-[3-(2-trifluoromethoxy-phenyl)-[1,2,4]oxadiazol-5-yl]-pyrrolidin-1-yl}-methanone] |  |  |
| 14 | 12 | Cc1ccc(-c2ncco2)c(C(=O)N2CCC[C@H]2c2nc(-c3ccccc3OC(F)(F)F)no2)c1 [compound 175, (5-Methyl-2-oxazol-2-yl-phenyl)-{(S)-2-[3-(2-trifluoromethoxy-phenyl)-[1,2,4]oxadiazol-5-yl]-pyrrolidin-1-yl}-methanone] |  |  |
| 26 | 83 | COc1ccc(-n2nccn2)c(C(=O)N2CCC[C@H]2c2nc(-c3ccccc3OC(F)(F)F)no2)c1F [compound 144, (2-Fluoro-3-methoxy-6-[1,2,3]triazol-2-yl-phenyl)-{(S)-2-[3-(2-trifluoromethoxy-phenyl)-[1,2,4]oxadiazol-5-yl]-pyrrolidin-1-yl}-methanone] |  |  |
| 249 | 39 | Cc1ccc(-n2nccn2)c(C(=O)N2CCC[C@H]2c2nc(-c3ccccc3C(F)(F)F)no2)c1 [compound 29, (5-Methyl-2-[1,2,3]triazol-2-yl-phenyl)-{(S)-2-[3-(2-trifluoromethyl-phenyl)-[1,2,4]oxadiazol-5-yl]-pyrrolidin-1-yl}-methanone] |  |  |
| 758 | 375 | Cc1ccc(-n2nccn2)c(C(=O)N2CCC[C@H]2c2nc(-c3cc(C)nc(C)c3)no2)c1 [compound 65, {(S)-2-[3-(2,6-Dimethyl-pyridin-4-yl)-[1,2,4]oxadiazol-5-yl]-pyrrolidin-1-yl}-(5-methyl-2-[1,2,3]triazol-2-yl-phenyl)-methanone] |  |  |
| 946 | 105 | Cc1ccc(-n2nccn2)c(C(=O)N2CCC[C@H]2c2nnc(-c3ccccc3C)o2)c1 [compound 441, (5-Methyl-2-[1,2,3]triazol-2-yl-phenyl)-[(S)-2-(5-o-tolyl-[1,3,4]oxadiazol-2-yl)-pyrrolidin-1-yl]-methanone] |  |  |
| 135 | 15 | COc1c(F)cccc1-c1noc([C@@H]2CCCN2C(=O)c2cc(C)cc(C)c2-n2nccn2)n1 [compound 192, (3,5-Dimethyl-2-[1,2,3]triazol-2-yl-phenyl)-{(S)-2-[3-(3-fluoro-2-methoxy-phenyl)-[1,2,4]oxadiazol-5-yl]-pyrrolidin-1-yl}-methanone] |  |  |
| 210 | 161 | N#Cc1ccc(-n2nccn2)c(C(=O)N2CCC[C@H]2c2nc(-c3ccccc3OC(F)(F)F)no2)c1 [compound 275, 4-[1,2,3]Triazol-2-yl-3-{(S)-2-[3-(2-trifluoromethoxy-phenyl)-[1,2,4]oxadiazol-5-yl]-pyrrolidine-1-carbonyl}-benzonitrile] |  |  |
